Measurements taken from US9550782B2, “Compounds and methods for treating diabetes” (Medivation Technologies, Inc., priority 2011, dated 2017).

Legend:
[1] = target: T1, human recombinant adrenergic α2B receptor (Homo sapiens, UniProt P18089); assay: Radioligand binding, adrenergic α2B ([3H]Rauwolscine); conditions: 0.03 µM; for Percentage inhibition of ligand binding, Adrenergic α2B (0.03 μM): compound at 0.03 μM, repeat datapoints each shown; for Percentage inhibition of ligand binding, Adrenergic α2B: 0.03 μM compound
T1 construct: expressed in transfected cells; host or cells: CHO-K1
T1 sequence (P18089 1-450): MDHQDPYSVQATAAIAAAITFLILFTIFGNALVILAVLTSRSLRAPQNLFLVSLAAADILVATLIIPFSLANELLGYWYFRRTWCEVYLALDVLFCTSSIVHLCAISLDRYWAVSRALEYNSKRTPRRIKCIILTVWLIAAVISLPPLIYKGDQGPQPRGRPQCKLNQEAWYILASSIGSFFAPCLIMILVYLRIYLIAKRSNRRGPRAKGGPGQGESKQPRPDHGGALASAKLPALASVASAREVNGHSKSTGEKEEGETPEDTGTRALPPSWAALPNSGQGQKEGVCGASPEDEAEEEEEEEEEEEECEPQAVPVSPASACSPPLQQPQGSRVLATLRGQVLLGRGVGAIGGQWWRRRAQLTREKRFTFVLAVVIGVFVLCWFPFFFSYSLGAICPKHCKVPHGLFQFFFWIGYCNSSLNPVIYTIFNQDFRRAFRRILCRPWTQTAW
Experimental: To evaluate in radioligand binding assays the activity of compounds of the invention, human recombinant adrenergic α2B receptor expressed in Chinese hamster ovary (CHO) K1 cells (Uhlen, S. et al, Eur. J. Pharmacol. 343(1):93, 1998) in a modified Tris-HCl buffer (50 mM Tris-HCl, pH 7.4, 12.5 mM MgCl2, 1 mM EDTA, 0.2% BSA) was used. Compounds of the invention were incubated with 2.5 nM [3H]Rauwolscine for 60 min at 25° C. Non-specific binding was estimated in the presence of 10 μM Prazosin. Receptor proteins were filtered and washed, the filters were then counted to determine [3H]Rauwolscine specifically bound. […] Compounds of the invention were tested in this biochemical assay and percent inhibition of specific binding was determined. Biochemical assay results are presented as the percent inhibition of specific binding in Table B1.

[2] = target: T2, human recombinant adrenergic α2A receptor (Homo sapiens, UniProt P08913); assay: Radioligand binding, adrenergic α2A ([3H]MK-912); conditions: [3H]MK-912; for Percentage inhibition of ligand binding, Adrenergic α2A (0.1 μM): compound at 0.1 μM, repeat datapoints each shown; for Percentage inhibition of ligand binding, Adrenergic α2A: 0.1 μM compound
T2 construct: expressed in transfected cells; host or cells: insect Sf9 cells
T2 sequence (P08913 1-465): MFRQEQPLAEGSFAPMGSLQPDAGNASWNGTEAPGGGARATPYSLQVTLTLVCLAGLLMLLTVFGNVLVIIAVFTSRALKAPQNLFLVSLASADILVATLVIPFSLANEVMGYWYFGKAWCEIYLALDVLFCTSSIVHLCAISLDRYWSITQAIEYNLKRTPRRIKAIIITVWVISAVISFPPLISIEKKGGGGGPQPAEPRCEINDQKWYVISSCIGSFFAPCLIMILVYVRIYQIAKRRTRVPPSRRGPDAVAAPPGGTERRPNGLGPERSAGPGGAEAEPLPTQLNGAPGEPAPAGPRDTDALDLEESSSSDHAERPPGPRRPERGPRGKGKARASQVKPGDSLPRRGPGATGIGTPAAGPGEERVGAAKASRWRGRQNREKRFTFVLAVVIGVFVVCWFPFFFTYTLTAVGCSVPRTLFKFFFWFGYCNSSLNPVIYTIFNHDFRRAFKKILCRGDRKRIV
Experimental: To evaluate in radioligand binding assays the activity of compounds of the invention, human recombinant adrenergic α2A receptor expressed in insect Sf9 cells (Uhlen, S. et al, J. Pharmacol. Exp. Ther. 271:1558, 1994) in a modified Tris-HCl buffer (50 mM Tris-HCl, pH 7.4, 12.5 mM MgCl2, 2 mM EDTA) was used. Compounds of invention were incubated with 1 nM [^3H]MK-912 for 60 min at 25° C. MK912 is (2S-trans)-1,3,4,5′,6,6′,7,12b-octahydro-1′,3′-dimethyl-spiro[2H-benzofuro[2,3-a]quinolizine-2,4′(1′H)-pyrimidin]-2′(3′H)-one hydrochloride. Non-specific binding was estimated in the presence of 10 μM WB-4101 (2-(2,6-Dimethoxyphenoxyethyl)aminomethyl-1,4-benzodioxane hydrochloride). Receptor proteins were filtered and washed, the filters were then counted to determine [^3H]MK-912 specifically bound. […] Compounds of the invention were tested in this biochemical assay and percent inhibition of specific binding was determined. Biochemical assay results are presented as the percent inhibition of specific binding in Table B1.

[3] = target: T3, rat adrenergic α1B receptor (Rattus norvegicus, UniProt P15823); assay: Radioligand binding, adrenergic α1B ([3H]Prazosin); set-up: species or system Wistar Rat; conditions: for Percentage inhibition of ligand binding, Adrenergic α1B (0.1 μM): compound at 0.1 μM, repeat datapoints each shown; for Percentage inhibition of ligand binding, Adrenergic α1B: 0.1 μM compound
T3 construct: rat adrenergic α1B receptor obtained from Wistar Rat liver; from tissue; host or cells: Wistar rat liver
T3 sequence (P15823 1-515): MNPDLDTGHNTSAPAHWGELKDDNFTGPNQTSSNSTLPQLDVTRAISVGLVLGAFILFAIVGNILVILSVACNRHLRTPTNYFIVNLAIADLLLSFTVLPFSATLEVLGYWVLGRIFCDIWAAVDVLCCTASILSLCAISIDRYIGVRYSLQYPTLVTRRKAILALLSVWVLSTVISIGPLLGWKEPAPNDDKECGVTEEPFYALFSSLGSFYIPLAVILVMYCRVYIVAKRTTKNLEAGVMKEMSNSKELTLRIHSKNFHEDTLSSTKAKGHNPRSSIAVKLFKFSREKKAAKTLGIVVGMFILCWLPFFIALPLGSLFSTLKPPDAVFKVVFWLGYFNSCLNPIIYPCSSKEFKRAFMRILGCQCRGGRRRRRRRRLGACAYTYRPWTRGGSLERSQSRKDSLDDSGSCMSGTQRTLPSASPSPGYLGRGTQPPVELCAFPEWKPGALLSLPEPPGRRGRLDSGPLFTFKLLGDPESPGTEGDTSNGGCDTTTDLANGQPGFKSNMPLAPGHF
Experimental: To evaluate in radioligand binding assays the activity of compounds of the invention, rat adrenergic α1B receptor obtained from Wistar Rat liver (Garcia-S'ainz, J. et al, Biochem. Biophys. Res. Commun. 186:760, 1992; Michel, A. et al, Br. J. Pharmacol. 98:883, 1989) in a modified Tris-HCl buffer (50 mM Tris-HCl buffer, pH 7.4, 0.5 mM EDTA) was used. Compounds of the invention were incubated with 0.25 nM [^3H]Prazosin for 60 min at 25° C. Non-specific binding was estimated in the presence of 10 μM phentolamine. Receptor proteins were filtered and washed, the filters were then counted to determine [^3H]Prazosin specifically bound. […] Compounds of the invention were tested in this biochemical assay and percent inhibition of specific binding was determined. Biochemical assay results are presented as the percent inhibition of specific binding in Table B1.

SMILES: Cc1ccc2c(c1)c1c(n2CC(O)c2ccncc2)CN(C)CC1 (stereo not drawn) [8a]
- Percentage inhibition of ligand binding, Adrenergic α2B (0.03 μM) [1]: 22%
- Percentage inhibition of ligand binding, Adrenergic α2A (0.1 μM) ([2]; 0.1 µM): 15%
- Percentage inhibition of ligand binding, Adrenergic α1B (0.1 μM) ([3]; 0.1 µM): 39%

SMILES: Cc1ccc2c(c1)c1c(n2CC(O)c2ccncc2C)CCN(C)C1 (stereo not drawn) [133a]
- Percentage inhibition of ligand binding, Adrenergic α2B [1]: 52%
- Percentage inhibition of ligand binding, Adrenergic α2A ([2]; 0.1 µM): 13%
- Percentage inhibition of ligand binding, Adrenergic α1B ([3]; 0.1 µM): 57%

SMILES: Cc1ccc2c(c1)c1c(n2CC(O)c2ccncc2)C(C)N2CCC1C2 (single isomer, unassigned) [38a]
- Percentage inhibition of ligand binding, Adrenergic α2B (0.03 μM) [1]: 35%
- Percentage inhibition of ligand binding, Adrenergic α2A (0.1 μM) ([2]; 0.1 µM): 14%
- Percentage inhibition of ligand binding, Adrenergic α1B (0.1 μM) ([3]; 0.1 µM): 11%

SMILES: Cc1ccc2c(c1)c1c(n2CC(O)c2ccncc2)CC2CCCCN2C1 (racemic) [75c]
- Percentage inhibition of ligand binding, Adrenergic α2B (0.03 μM) [1]: 11%
- Percentage inhibition of ligand binding, Adrenergic α2A (0.1 μM) ([2]; 0.1 µM): −2%
- Percentage inhibition of ligand binding, Adrenergic α1B (0.1 μM) ([3]; 0.1 µM): 59%

SMILES: Cc1ccc2c(c1)c1c(n2CC(O)c2ccncc2)CC2CCCN2C1 (single isomer, unassigned) [76a]
- Percentage inhibition of ligand binding, Adrenergic α2B (0.03 μM) [1]: 92%
- Percentage inhibition of ligand binding, Adrenergic α2A (0.1 μM) ([2]; 0.1 µM): 21%
- Percentage inhibition of ligand binding, Adrenergic α1B (0.1 μM) ([3]; 0.1 µM): 78%

SMILES: CN1CCc2c(c3cccc(Cl)c3n2CC(O)c2ccncc2)C1 (single isomer, unassigned) [45b]
- Percentage inhibition of ligand binding, Adrenergic α2B (0.03 μM) [1]: 96%
- Percentage inhibition of ligand binding, Adrenergic α2A (0.1 μM) ([2]; 0.1 µM): 16%
- Percentage inhibition of ligand binding, Adrenergic α1B (0.1 μM) ([3]; 0.1 µM): 24%

SMILES: CN1CCc2c(n(CC(O)c3ccncc3)c3ccc(Cl)cc23)C1 (single isomer, unassigned) [41b]
- Percentage inhibition of ligand binding, Adrenergic α2B (0.03 μM) [1]: 50%
- Percentage inhibition of ligand binding, Adrenergic α2A (0.1 μM) ([2]; 0.1 µM): 8%
- Percentage inhibition of ligand binding, Adrenergic α1B (0.1 μM) ([3]; 0.1 µM): 50%

SMILES: Cc1ccc2c(c1)c1c(n2C(C)C(O)c2ccncc2)CCN(C)C1 (stereo not drawn) [127b]
- Percentage inhibition of ligand binding, Adrenergic α2B [1]: 1%
- Percentage inhibition of ligand binding, Adrenergic α2A [2]: 4%
- Percentage inhibition of ligand binding, Adrenergic α1B [3]: 13%

SMILES: Cc1ccc2c(c1)c1c(n2CC(O)c2ccncc2)CCN2CCCCC12 (single isomer, unassigned) [47d]
- Percentage inhibition of ligand binding, Adrenergic α2B (0.03 μM) [1]: 30%
- Percentage inhibition of ligand binding, Adrenergic α2A (0.1 μM) ([2]; 0.1 µM): −3%
- Percentage inhibition of ligand binding, Adrenergic α1B (0.1 μM) ([3]; 0.1 µM): 5%

SMILES: Cc1ccc2c(c1)c1c(n2CC(O)c2ccncc2Cl)CCN(C)C1 (single isomer, unassigned) [135b]
- Percentage inhibition of ligand binding, Adrenergic α2B [1]: 68%
- Percentage inhibition of ligand binding, Adrenergic α2A ([2]; 0.1 µM): 22%
- Percentage inhibition of ligand binding, Adrenergic α1B ([3]; 0.1 µM): 30%

SMILES: Cc1ccc2c(c1)c1c(n2CC(O)c2cc[n+]([O-])cc2)CCN(C)C1 (single isomer, unassigned) [69b]
- Percentage inhibition of ligand binding, Adrenergic α2B (0.03 μM) [1]: 19%
- Percentage inhibition of ligand binding, Adrenergic α2A (0.1 μM) ([2]; 0.1 µM): 7%
- Percentage inhibition of ligand binding, Adrenergic α1B (0.1 μM) ([3]; 0.1 µM): 8%
